The data set relates to lamina cribrosa cell line #506. In words: TUNEL labeling of siRNA-transfected LC cells treated with TNF-α and camptothecin. In kind it is cell-based, human. The following applies: LC #506, TNF-α and camptothecin 24 h. How it is done: Lamina cribrosa cell line #506 cells were seeded at 7500 cells per well onto an 8-well culture slide. Three days later the LC cells were transfected with either apoptosis-specific eIF-5A siRNA #1 (SEQ ID NO:30) or control siRNA #5 (SEQ ID NO:34). 72 hours after transfection, the transfected cells were treated with 10 ng/ml TNF-α plus 50 μM camptothecin. Twenty-four hours later the cells were stained with Hoescht 33258 and DNA fragmentation was evaluated in situ using the terminal deoxynucleotidyl transferase-mediated dUTP-digoxigenin nick end labeling (TUNEL) method. Panel A represents the slide observed by fluorescence microscopy using a fluorescein filter to visualize TUNEL-labeling of the fragmented DNA of apoptotic cells. Panel B represents the same slide observed by through a UV filter to visualize the Hoescht-stained nuclei. The results are representative of two independent experiments. All pictures were taken at 400 times magnification.
Transfected cells that had been treated with TNF-α and camptothecin for 24 hours were stained with Hoescht 33258 in order to determine the percentage of cells undergoing apoptosis. Briefly, cells were fixed with a 3:1 mixture of absolute methanol and glacial acetic acid and then incubated with Hoescht stain (0.5 μg/ml Hoescht 33258 in PBS). After a 10 minute incubation in the dark, the staining solution was discarded, the chambers separating the wells of the culture slide were removed, and the slide was washed 3 times for 1 minute with deionized water. After washing, a few drops of Mcllvaine's buffer (0.021 M citric acid, 0.058 M Na2HPO4.7H2O; pH 5.6) was added to the cells and overlaid with a coverslip. The stained cells were viewed under a fluorescent microscope using a UV filter. Cells with brightly stained or fragmented nuclei were scored as apoptotic. A minimum of 200 cells were counted per well. The DeadEnd™ Fluorometric TUNEL (Promega) was also used to detect the DNA fragmentation that is a characteristic feature of apoptotic cells. Following Hoescht staining, the culture slide was washed briefly with distilled water, and further washed by immersing the slide twice for 5 minutes in PBS (137 mM NaCl, 2.68 mM KCl, 1.47 mM KH2PO4, 8.1 mM Na2HPO4), blotting the slide on paper towel between washes. The cells were permeabilized by immersing them in 0.2% Triton X-100 in PBS for 5 minutes. The cells were then washed again by immersing the slide twice for 5 minutes in PBS and blotting the slide on paper towel between washes. 25 μl of equilibration buffer [200 mM potassium cacodylate (pH 6.6), 25 mM. Tris-HCl (pH 6.6), 0.2 mM dithiothreitol, 0.25 mg/ml bovine serum albumin, and 2.5 mM cobalt chloride] was added per well and incubated for 5 to 10 minutes. […] Any cells with brightly stained or fragmented nuclei were scored as apoptotic. […]

Take “siRNA #1: siRNA against human apoptosis-specific eIF-5A (SEQ ID NO:30); target 5′ AAAGGAATGACTTCCAGCTGA 3′ (SEQ ID NO: 81) (AAAGGAAUGACUUCCAGCUGATT; RNA, all phosphodiester, T or U not given here; listed as Homo sapiens)”: the “LC cells positive for TUNEL staining” value (3 days after transfection) turned out to be 8%. Moreover, under “TUNEL”, the “protection from apoptosis relative to the control siRNA” value is “greater than 80%”.
